The source of these data is PubChem BioAssay AID1259407 (Chemical Carcinogenesis Research Information System (CCRIS), 2018).

Activity calls are given as the source filed them. No rule for the calls is given here.

This data set has as its system CCRIS mutagenicity, Ames/micronucleus/aberration tests. As to the kind of experiment: CCRIS mutagenicity studies.
The mark [1] stands for this setting: Test System: AMES SALMONELLA TYPHIMURIUM, Strain/Indicator: TA100, Metabolic Activation: NONE, Method: PREINCUBATION
Where [2] appears, read: Test System: AMES SALMONELLA TYPHIMURIUM, Strain/Indicator: TA98, Metabolic Activation: NONE, Method: STANDARD PLATE.
[3] abbreviates: Test System: AMES SALMONELLA TYPHIMURIUM, Strain/Indicator: TA100, Metabolic Activation: NONE, Method: STANDARD PLATE.
Where [4] appears, read: Test System: AMES SALMONELLA TYPHIMURIUM, Strain/Indicator: TA1535, Metabolic Activation: NONE, Method: STANDARD PLATE.

Consider `C=CCNC(N)=S`, for which the mutagenic call is “inactive; negative” (Test System: AMES SALMONELLA TYPHIMURIUM, Strain/Indicator: TA97, Metabolic Activation: HAMSTER, LIVER, S-9, AROCLOR 1254 (10 OR 30%), Method: PREINCUBATION); “inactive; negative” (Test System: AMES SALMONELLA TYPHIMURIUM, Strain/Indicator: TA97, Metabolic Activation: NONE, Method: PREINCUBATION); “inactive; negative” (Test System: AMES SALMONELLA TYPHIMURIUM, Strain/Indicator: TA97, Metabolic Activation: RAT, LIVER, S-9, AROCLOR 1254 (10 OR 30%), Method: PREINCUBATION); “inactive; negative” (Test System: AMES SALMONELLA TYPHIMURIUM, Strain/Indicator: TA98, Metabolic Activation: HAMSTER, LIVER, S-9, AROCLOR 1254 (10 OR 30%), Method: PREINCUBATION); “inactive; negative” (Test System: AMES SALMONELLA TYPHIMURIUM, Strain/Indicator: TA98, Metabolic Activation: NONE, Method: PREINCUBATION); “inactive; negative” (Test System: AMES SALMONELLA TYPHIMURIUM, Strain/Indicator: TA98, Metabolic Activation: RAT, LIVER, S-9, AROCLOR 1254 (10 OR 30%), Method: PREINCUBATION). The mutagenic call reads like this: (Test System: AMES SALMONELLA TYPHIMURIUM, Strain/Indicator: TA100, Metabolic Activation: HAMSTER, LIVER, S-9, AROCLOR 1254 (10 OR 30%), Method: PREINCUBATION) “inactive; negative”; under setting [1], “inactive; negative”; (Test System: AMES SALMONELLA TYPHIMURIUM, Strain/Indicator: TA100, Metabolic Activation: RAT, LIVER, S-9, AROCLOR 1254 (10 OR 30%), Method: PREINCUBATION) “inactive; negative”; (Test System: AMES SALMONELLA TYPHIMURIUM, Strain/Indicator: TA1535, Metabolic Activation: HAMSTER, LIVER, S-9, AROCLOR 1254 (10 OR 30%), Method: PREINCUBATION) “inactive; negative”; (Test System: AMES SALMONELLA TYPHIMURIUM, Strain/Indicator: TA1535, Metabolic Activation: NONE, Method: PREINCUBATION) “inactive; negative”; (Test System: AMES SALMONELLA TYPHIMURIUM, Strain/Indicator: TA1535, Metabolic Activation: RAT, LIVER, S-9, AROCLOR 1254 (10 OR 30%), Method: PREINCUBATION) “inactive; negative”.

Consider `CC(=O)OCN(N=O)c1ccccc1`, for which, under “Test System: AMES SALMONELLA TYPHIMURIUM, Strain/Indicator: TA1537, Metabolic Activation: NONE, Method: LIQUID INCUBATION”, the mutagenic call is “active; positive”.

As to `NCCc1c[nH]c2ccccc12`, the mutagenic call runs as follows: (Test System: AMES SALMONELLA TYPHIMURIUM, Strain/Indicator: TA97A, Metabolic Activation: NONE, Method: STANDARD PLATE) “inactive; negative”; (Test System: AMES SALMONELLA TYPHIMURIUM, Strain/Indicator: TA97A, Metabolic Activation: RAT LIVER S-9, PHENOBARBITOL/BETA-NAPHTHOFLAVONE, Method: STANDARD PLATE) “inactive; negative”; under setting [2], “inactive; negative”; (Test System: AMES SALMONELLA TYPHIMURIUM, Strain/Indicator: TA98, Metabolic Activation: RAT LIVER S-9, PHENOBARBITOL/BETA-NAPHTHOFLAVONE, Method: STANDARD PLATE) “inactive; negative”; under setting [1], “inactive; negative”; under setting [3], “inactive; negative”. Moreover, the mutagenic call is “inactive; negative” (Test System: AMES SALMONELLA TYPHIMURIUM, Strain/Indicator: TA100, Metabolic Activation: RAT LIVER S-9, PHENOBARBITOL/BETA-NAPHTHOFLAVONE, Method: STANDARD PLATE); “inactive; negative” under setting [4]; “inactive; negative” (Test System: AMES SALMONELLA TYPHIMURIUM, Strain/Indicator: TA1535, Metabolic Activation: RAT LIVER S-9, PHENOBARBITOL/BETA-NAPHTHOFLAVONE, Method: STANDARD PLATE); “inactive; negative” (Test System: E.COLI, Strain/Indicator: WP2/UVRA, Metabolic Activation: NONE, Method: STANDARD PLATE); “inactive; negative” (Test System: E.COLI, Strain/Indicator: WP2/UVRA, Metabolic Activation: RAT LIVER S-9, PHENOBARBITOL/BETA-NAPHTHOFLAVONE, Method: STANDARD PLATE).

For the compound `O=C(N[C@H](CO)[C@H](O)c1ccc([N+](=O)[O-])cc1)C(Cl)Cl`, the mutagenic call reads like this: (Test System: CHINESE HAMSTER V-79, Strain/Indicator: V-79/6-THIOGUANINE, Metabolic Activation: NONE) “active; positive”; (Test System: CHINESE HAMSTER V-79, Strain/Indicator: V-79/6-THIOGUANINE, Metabolic Activation: RAT HEPATOCYTES) “inactive; negative”.

Consider `O=[N+]([O-])c1ccc2nscc2c1`, for which the mutagenic call was “active; positive” under setting [2]; “active; positive” (Test System: AMES SALMONELLA TYPHIMURIUM, Strain/Indicator: TA98, Metabolic Activation: S-9, Method: STANDARD PLATE); “active; positive” under setting [3]; “active; positive” (Test System: AMES SALMONELLA TYPHIMURIUM, Strain/Indicator: TA100, Metabolic Activation: S-9, Method: STANDARD PLATE); “active; positive” under setting [4]; “active; positive” (Test System: AMES SALMONELLA TYPHIMURIUM, Strain/Indicator: TA1535, Metabolic Activation: S-9, Method: STANDARD PLATE). The mutagenic call (Test System: AMES SALMONELLA TYPHIMURIUM, Strain/Indicator: TA1537, Metabolic Activation: NONE, Method: STANDARD PLATE) is “active; positive” and the mutagenic call (Test System: AMES SALMONELLA TYPHIMURIUM, Strain/Indicator: TA1537, Metabolic Activation: S-9, Method: STANDARD PLATE) was “active; positive”.
